Experimental data reported in PubChem BioAssay (NCI).
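Values below derive from 48-hour exposures of cells grown in 96-well plates, with endpoints linearly interpolated between the two concentrations bracketing the appropriate inhibition level. The concentration for 50% growth inhibition is given as GI50. TGI marks complete inhibition of growth.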

Key:
Test in all cases: NCI-60 cell line screen, 48 h
[1] = test system: 786-0 renal
[2] = test system: A549 NSCLC
[3] = test system: HOP-62 NSCLC
[4] = test system: HS 578T breast
[5] = test system: IGROV1 ovarian
[6] = test system: LOX IMVI melanoma
[7] = test system: OVCAR-3 ovarian
[8] = test system: OVCAR-4 ovarian
[9] = test system: SF-539 CNS
[10] = test system: UACC-257 melanoma

SMILES | TGI [1] [µM] | TGI [2] [µM] | TGI [3] [µM] | TGI [4] [µM] | TGI [5] [µM] | TGI [6] [µM] | TGI [7] [µM] | TGI [8] [µM] | TGI [9] [µM] | TGI [10] [µM] | GI50 [1] [µM] | GI50 [2] [µM] | GI50 [3] [µM] | GI50 [4] [µM] | GI50 [5] [µM] | GI50 [6] [µM] | GI50 [7] [µM] | GI50 [8] [µM] | GI50 [9] [µM] | GI50 [10] [µM]
CC1CCC2(C(=O)O)CCC3(C)C(=CCC4C5(C)CC(O)C(O)C(C)(CO)C5C(O)CC43C)C2C1C (stereo not given) | 20 | > 100 | > 83.7 | 41.5 | 35.9 | 42.3 | 50.8 | > 100 | 75.9 | > 100 |  |  |  |  |  |  |  |  |  | 
COc1cc(OC)cc(-c2ccc(-c3ccc(C(=N)N)o3)o2)c1 | 15.6 | 13.3 | 19.1 | 27.3 | 10.4 | 3.29 | 11.3 | 14.8 | 3.44 | 5.41 | 4.15 | 3.78 | 5.65 | 8.12 | 2.97 | 1.79 | 3.26 | 3.51 | 1.83 | 2.41
Cn1cc(-c2cnc3ccc(NC(=O)Nc4ccc(F)c(Br)c4)cc3n2)cn1 | 5.9 | 4.85 | 3.84 | 5.15 | 3.49 | 2.9 | 5.77 | 5.55 | 3.4 | 4.57 | 1.98 | 1.77 | 1.8 | 2 | 1.6 | 1.51 | 2 | 1.53 | 1.75 | 1.92
Cc1ccc(CS/C(=C\c2ccc([N+](=O)[O-])cc2)C(=O)c2ccc(F)cc2)cc1 | 4.99 | > 100 | 29.2 | 6.34 | 31.3 | 3 | 4.02 | 13.3 | 10.8 | 19.9 | 2.11 | 49.1 | 11.5 | 2.35 | 4.49 | 1.64 | 1.95 | 3.04 | 3.22 | 5.61
O=C(O)CCCCC(CCSCc1ccccc1)SCc1ccccc1 (stereo not given) | > 100 | > 100 | > 100 | > 100 | > 100 | > 100 | > 69.9 | > 100 | > 100 | > 100 | 64.2 | 43.5 | 68.6 | 50.3 | 42.4 | 48.2 | 37.9 | 70.2 | 66.5 | > 67.1
N#C/C(=C1C=C/C(=N/O)C(Br)=C/1)c1ccccc1 | 14.7 | > 100 | 13 | 8.09 | 12.2 | 2.9 | 11.4 | 37.9 | 2.75 | 55.9 | 3.19 | 3.48 | 2.25 | 2.52 | 2.16 | 0.521 | 3.48 | 5.41 | 1.09 | 6.61
Cc1cc(I)cc(CNCCCN2CCSCC2)c1O | 25.8 | 39.2 | 28.3 | 26.6 | 29.7 | 28.4 | 27.7 | 46.7 | 30.8 | 34.1 | 13 | 18.7 | 14.3 | 12.1 | 13.8 | 14.6 | 14.1 | 20.3 | 16.8 | 16.6
Nc1ccn(C2O[C@H](CO)[C@@H](O)[C@@H]2O)c(=O)n1 (stereo not given in full) | > 100 | > 100 | > 100 | > 100 | > 100 | > 100 | > 100 | > 100 | > 100 | > 100 |  | 24.6 | 64.3 |  |  |  |  |  |  | 
O=c1oc2ccc(F)cc2c(=O)n1-c1ccc(F)cc1F | 11.4 | > 100 | 8.05 | 8.51 | > 100 | 22 | 27.7 | 30.2 | 13.8 | 7.15 | 3.13 | 3.35 | 2.39 | 2.59 | 3.01 | 3.79 | 3.26 | 3.02 | 3.31 | 2.29
O=NN(Cc1ccc(Cl)cc1)C(C(=O)O)c1ccccc1 (stereo not given) | > 100 | > 100 | > 100 | > 100 | > 100 | > 100 | > 100 | > 100 | > 100 | > 100 |  |  |  |  |  |  |  |  |  | 
COc1cccc(/C=N/NC(=O)c2ccccc2Nc2ccnc(C(F)(F)F)c2)c1O | > 37.5 | > 34.1 | > 53.6 | > 46.7 | 0.0745 | > 100 | 43.9 |  | 11.3 | 5.88 | 0.552 | 0.87 | 0.431 | 1.08 | 0.0234 | 0.264 | 0.169 | 0.0822 | 0.583 | 0.346
CC1OC(n2cc(F)c(=O)[nH]c2=O)CCC1O (stereo not given) | > 100 | > 100 | > 100 | > 100 | > 100 | > 100 | > 100 | > 100 | 84.4 | > 100 |  |  |  |  |  |  |  |  |  | 
O=C(CN1CCOCC1)Nc1ccc(Cn2nnc3c2C(=O)c2nnn(Cc4ccc(NC(=O)CN5CCOCC5)cc4)c2C3=O)cc1 | 5.27 | 4.97 | 3.46 | 8.34 | 1.64 | 1.35 | 0.836 | 1.52 | 1.07 | 0.624 | 1.94 | 1.99 | 1.64 | 1.94 | 0.361 | 0.275 | 0.25 | 0.303 | 0.304 | 0.253
Cc1nc2cccc([N+](=O)[O-])c2c(NCCCN(C)C)c1C | > 100 | > 100 | > 69.2 | > 100 | > 100 | > 100 | > 63.9 | > 100 | > 100 | 57.3 |  |  |  |  |  |  |  |  |  | 
O=C1/C(=C/c2ccc(Cl)cc2Cl)N=C(c2ccccc2)N1Cc1ccco1 | 41.2 | 71 | 38.9 | 65 | 51 | > 100 | 45.5 | 50 | 55.6 | > 100 | 19.8 | 27.1 | 18.4 | 22.7 | 18.6 | 50.5 | 22.6 | 21.2 | 23.7 | 36.5
COc1ccc(C2=NN(C(=O)c3cc(OC)c(OC)c(OC)c3)C(c3ccc(C#N)cc3)C2)cc1OC (stereo not given) | > 48.8 | > 100 | 36.9 | > 26 | 18.9 | 16.3 | 2.35 | > 65.1 |  | > 53.2 | 2.14 | 2.32 | 1.53 | 1.53 | 1.18 | 2.24 | 0.478 | 3.41 | 0.882 | 6.4
CC1OC(O[C@H]2C[C@@H](O)[C@]3(CO)[C@H]4[C@H](O)C[C@]5(C)[C@@H](C6=CC(=O)OC6)CC[C@]5(O)[C@@H]4CC[C@]3(O)C2)C(O)C(O)C1O (stereo not given in full) | 36.3 | 39 | 51.9 | 65.9 | 36.7 | 34 | 40.7 | 33.1 | 39.5 | 39.2 | 19.9 | 21.2 | 21.7 | 25.6 | 19.7 | 19 | 19.8 | 17.3 | 21.4 | 19.5
CN(C)CCNc1cc(-c2ccccc2)nc2ccccc12 | 23.8 | 43.5 | 32.9 | 37.1 | 35.1 | 14.4 | 33.1 | 37.4 | 22.7 | 26.7 | 6.87 | 4.83 | 6.02 | 12 | 6.57 | 3.6 | 8.9 | 7.45 | 8.22 | 11.5
Cc1nn(CN2CCN(C)CC2)c(=S)n1/N=C/c1cccc2ccccc12 | 44.6 | 46.7 | 42.3 | 74.8 | 55.1 | 31.4 | 36 | 19.4 | 34.7 | 44.6 | 21.3 | 20.6 | 20 | 26.8 | 19.4 | 17.6 | 18 | 2.11 | 18.3 | 22.2
Cc1c(C(=O)N/N=C/c2ccc(Cl)cc2)nnn1-c1ccnc2c(C(F)(F)F)cccc12 | 37.8 | 4.63 | 17.3 | 12 | 37 | 3.18 | 26.4 | 6.08 | 25.8 | 6.91 | 18.5 | 2.1 | 5.01 | 3.62 | 9.06 | 1.69 | 12 | 2.9 | 12.6 | 2.89
C[C@]12CC[C@H](O)CC1=CC[C@@H]1[C@@H]2CC[C@]2(C)C(c3cccnc3)=CC[C@@H]12 | > 100 | > 100 | > 100 | > 100 | > 100 | > 100 | > 100 | > 100 | > 100 | > 100 | 5.18 | > 100 | 18.4 | 7.13 | > 100 | > 100 | 82.1 | 95.2 | 8.31 | > 100
